Source: article PMC8954792 (Viruses, 2022)

Experiments:
SARS-CoV PsV [1] = test system: SARS-CoV PsV
cell-free SARS-CoV PsV [2] = test system: cell-free SARS-CoV PsV
[3] = Cytotoxicity (CCK-8) on Huh-7 cells; conditions: human
MERS-CoV PsV [4] = experiment: microbe, parasite or virus in culture; conditions: Middle East respiratory syndrome-related coronavirus, Huh-7
cell-free SARS-CoV PsV [5] = experiment: microbe, parasite or virus in culture; conditions: Severe acute respiratory syndrome coronavirus
[6] = test system: pseudotyped SARS-CoV-2 Omicron (B.1.1.529); experiment: microbe, parasite or virus in culture; format: cell-based; conditions: Severe acute respiratory syndrome coronavirus 2, Caco-2
SARS-CoV-2 PsV [7] = experiment: microbe, parasite or virus in culture; format: cell-based; conditions: Severe acute respiratory syndrome coronavirus 2
cell-free SARS-CoV-2 PsV = experiment: Inactivation of cell-free SARS-CoV-2 PsV; format: cell-based; conditions: Severe acute respiratory syndrome coronavirus 2
[8] = test system: authentic SARS-CoV-2 WT (nCoV-SH01); experiment: microbe, parasite or virus in culture; format: cell-based; conditions: Severe acute respiratory syndrome coronavirus 2, Vero C1008
[9] = test system: pseudotyped SARS-CoV-2 Alpha (B.1.1.7); experiment: microbe, parasite or virus in culture; format: cell-based; conditions: Severe acute respiratory syndrome coronavirus 2, Caco-2
[10] = test system: pseudotyped SARS-CoV-2 Gamma (P.1); experiment: microbe, parasite or virus in culture; format: cell-based; conditions: Severe acute respiratory syndrome coronavirus 2, Caco-2
MERS-CoV PsV [11] = test system: MERS-CoV PsV
SARS-CoV PsV [12] = experiment: microbe, parasite or virus in culture; conditions: Severe acute respiratory syndrome coronavirus
H7N9 PsV = experiment: microbe, parasite or virus in culture; format: cell-based, influenza virus; conditions: Influenza A virus, H7N9, MDCK, read-out: IC50 H7N9
in vitro = conditions: dog
[13] = Cytotoxicity (CCK-8) on hACE2-293T cells; conditions: human
cell-free MERS-CoV PsV [14] = experiment: microbe, parasite or virus in culture; conditions: Middle East respiratory syndrome-related coronavirus, Huh-7
[15] = test system: pseudotyped SARS-CoV-2 Beta (B.1.351); experiment: microbe, parasite or virus in culture; format: cell-based; conditions: Severe acute respiratory syndrome coronavirus 2, Caco-2
H5N1 PsV = experiment: microbe, parasite or virus in culture; format: cell-based, influenza virus; conditions: Influenza A virus, H5N1, MDCK, read-out: IC50 H5N1
HIV-1 6-HB = HIV-1 6-HB (Human immunodeficiency virus type 1, UniProt P04578); experiment: Inhibition of HIV-1 6-HB formation (ELISA); format: biochemical; conditions: HIV-1 6-HB formation measured by ELISA
authentic HCoV-OC43 = experiment: CPE reduction assay, authentic HCoV-OC43; format: cell-based; conditions: Betacoronavirus 1; HCoV-OC43 infection, RD cells, CCK-8
LASV = experiment: organism not typed; format: cell-based, Lassa fever virus; conditions: Huh-7
Vero E6 cells = format: cell-based
VSV PsV = experiment: microbe, parasite or virus in culture; format: cell-based, vesicular stomatitis virus; conditions: Vesicular stomatitis virus, Huh-7
HPV PsV = format: cell-based, human papilloma virus
NiV = experiment: microbe, parasite or virus in culture; format: cell-based, Nipah virus; conditions: Henipavirus nipahense, U-87 MG
EBOV (Zaire) = experiment: microbe, parasite or virus in culture; format: cell-based, Ebola virus; conditions: Zaire ebolavirus, Huh-7
cell-free MERS-CoV PsV [16] = test system: cell-free MERS-CoV PsV
SARS-CoV-2 PsV [17] = format: cell-based
[18] = test system: authentic ZIKV PRVABC59 (2015/Puerto Rico); experiment: microbe, parasite or virus in culture; format: cell-based; conditions: Zika virus, Vero C1008
authentic EV71 = experiment: CPE reduction assay, authentic EV71; format: cell-based, human enterovirus 71 virus; conditions: RD cells
EBOV (Sudan) = experiment: microbe, parasite or virus in culture; format: cell-based, Ebola virus; conditions: Zaire ebolavirus, Huh-7

Chain of HIV-1 6-HB (P04578 536-581, added parts left off): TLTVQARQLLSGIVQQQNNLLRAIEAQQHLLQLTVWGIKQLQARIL
Chain of HIV-1 6-HB (P04578 536-581, added parts left off): as above

O=C(O)c1cc(-c2ccc(/C=C3\SC(=S)N(CCc4ccc(OCc5ccc(F)cc5)cc4)C3=O)o2)ccc1Cl [FD010]
SI CC50/IC50 (SARS-CoV PsV [1]): 70.41 | SI CC50/EC50 (cell-free SARS-CoV PsV [2]): 107.47 | CC50 at 48 h [3]: 44700 ± 1260 nM | IC50 (MERS-CoV PsV [4]): 120 ± 10 nM | EC50 (cell-free SARS-CoV PsV [5]): 190 ± 30 nM | IC50 [6]: 2880 nM | IC50 (SARS-CoV-2 PsV [7]): 360 nM | EC50 (cell-free SARS-CoV-2 PsV): 90 nM | IC50 [8]: 40 nM | IC50 [9]: 1040 nM | IC50 [10]: 870 nM | SI CC50/IC50 (MERS-CoV PsV [11]): 372.25 | IC50 (SARS-CoV PsV [12]): 290 ± 30 nM | IC50 (H7N9 PsV): 5880 ± 610 nM | CC50 (in vitro): > 50000 nM | CC50 at 48 h [13]: 20400 ± 1000 nM | EC50 (cell-free MERS-CoV PsV [14]): 40 ± 10 nM | IC50 [15]: 1550 nM | IC50 (H5N1 PsV): 970 ± 210 nM

O=C(O)c1cc(-c2ccc(/C=C3\SC(=S)N(CCc4ccc(OCC5CC5)cc4)C3=O)o2)ccc1Cl [FD012]
inhibitory activity relative to FD001 (SARS-CoV PsV [1]): ~10 fold | IC50 (HIV-1 6-HB): 50100 nM | IC50 (authentic HCoV-OC43): 110 nM | SI CC50/EC50 (cell-free SARS-CoV PsV [2]): 102.50 | CC50 at 48 h [3]: 18600 ± 350 nM | IC50 (LASV): 320 ± 40 nM | IC50 (MERS-CoV PsV [4]): 110 ± 10 nM | EC50 (cell-free SARS-CoV PsV [5]): 120 ± 10 nM | IC50 [6]: 770 nM | IC50 (SARS-CoV-2 PsV [7]): 30 nM | EC50 (cell-free SARS-CoV-2 PsV): 40 nM | fluorescence intensity of treated cells (binding to cells) (Vero E6 cells): positively correlated with compound concentration | IC50 (VSV PsV): 5 nM | IC50 [8]: 410 nM | IC50 [9]: 350 nM | IC50 [10]: 250 nM | SI CC50/IC50 (MERS-CoV PsV [11]): 169.27 | IC50 (SARS-CoV PsV [12]): 20 ± 10 nM | inhibition of infection of nonenveloped HPV PsV (HPV PsV): could not inhibit | IC50 (NiV): 70 ± 10 nM | IC50 (H7N9 PsV): 230 ± 20 nM | IC50 (EBOV (Zaire)): 90 ± 20 nM | SI CC50/EC50 (cell-free MERS-CoV PsV [16]): 372.40 | inhibition of SARS-CoV-2 PsV infection after unbound compound washed from cells (SARS-CoV-2 PsV [17]): not effective in inhibiting viral infection after washing | CC50 (in vitro): 41700 nM | IC50 [18]: 910 nM | CC50 at 48 h [13]: 12300 ± 340 nM | inhibition of infection of authentic EV71 (authentic EV71): could not inhibit | EC50 (cell-free MERS-CoV PsV [14]): 50 ± 10 nM | IC50 [15]: 270 nM | IC50 (H5N1 PsV): 150 ± 10 nM | IC50 (EBOV (Sudan)): 190 ± 20 nM

O=C(O)c1cc(-c2ccc(/C=C3\SC(=S)N(CCc4ccc(OCc5ccsc5)cc4)C3=O)o2)ccc1Cl [FD013]
SI CC50/IC50 (SARS-CoV PsV [1]): 372.40 | SI CC50/EC50 (cell-free SARS-CoV PsV [2]): 186.20 | CC50 at 48 h [3]: 30900 ± 630 nM | IC50 (MERS-CoV PsV [4]): 50 ± 10 nM | EC50 (cell-free SARS-CoV PsV [5]): 100 ± 10 nM | IC50 [6]: 980 nM | IC50 (SARS-CoV-2 PsV [7]): 120 nM | EC50 (cell-free SARS-CoV-2 PsV): 70 nM | IC50 [8]: 30 nM | IC50 [9]: 400 nM | IC50 [10]: 410 nM | SI CC50/IC50 (MERS-CoV PsV [11]): 618.00 | IC50 (SARS-CoV PsV [12]): 50 ± 10 nM | IC50 (H7N9 PsV): 3540 ± 890 nM | inhibition of SARS-CoV-2 PsV infection after unbound compound washed from cells (SARS-CoV-2 PsV [17]): not effective in inhibiting viral infection after washing | CC50 (in vitro): > 50000 nM | CC50 at 48 h [13]: 18600 ± 230 nM | EC50 (cell-free MERS-CoV PsV [14]): 30 ± 10 nM | IC50 [15]: 310 nM | IC50 (H5N1 PsV): 260 ± 20 nM

CCC(CC)COC(=O)[C@H](C)N[P@](=O)(OC[C@H]1O[C@@](C#N)(c2ccc3c(N)ncnn23)[C@H](O)[C@@H]1O)Oc1ccccc1 [Remdesivir, remdesivir, reference compound]
IC50 [8]: 1090 nM
